Data set [1] addresses T1, nAChRs comprised of α4 and β2 subunits (Rattus norvegicus, UniProt P09483+P12390).
T1 construct: Cerebral corticies from male Wistar rats (150-250 g) are homogenised; from tissue; host or cells: rat cerebral cortex membranes (male Wistar)
Briefly: In vitro inhibition of 3H-cytisine binding (Assay I). The method, then:
In Vitro inhibition of ^3H-cytisine binding (Assay I)
The predominant subtype with high affinity for nicotine is comprised of α4 and β2 subunits. nAChRs of the latter type can selectively be labelled by the nicotine agonist ^3H-cytisine.
Preparations are performed at 0-4° C. unless otherwise indicated. Cerebral corticies from male Wistar rats (150-250 g) are homogenised for 20 seconds in 15 ml Tris, HCl (50 mM, pH 7.4) containing 120 mM NaCl, 5 mM KCl, 1 mM MgCl2 and 2.5 mM CaCl2 using an Ultra-Turrax homogeniser. The homogenate is centrifuged at 27,000×g for 10 minutes. The supernatant is discarded and the pellet is resuspended in fresh buffer and centrifuged a second time. The final pellet is resuspended in fresh buffer (35 ml per g of original tissue) and used for binding assays.
Aliquots of 500 μl homogenate are added to 25 μl of test solution and 25 μl of ^3H-cytisine (1 nM, final concentration), mixed and incubated for 90 minutes at 2° C. Non-specific binding is determined using (−)-nicotine (100 μM, final concentration). After incubation the samples are added 5 ml of ice-cold buffer and poured directly onto Whatman GF/C glass fibre filters under suction and immediately washed with 2×5 ml ice-cold buffer. The amount of radioactivity on the filters is determined by conventional liquid scintillation counting. Specific binding is total binding minus non-specific binding.

For data set [2], the target named is T2, nAChR formed by the α7 subunit isoform (Rattus norvegicus, UniProt Q05941).
T2 construct: Cerebral cortices from male Wistar rats (150-250 g) are homogenised; from tissue; host or cells: rat cerebral cortex membranes (male Wistar)
The data set can be described thus: biochemical. The format is binding. The settings on record: read-out: Assay III IC50.

The mark [3] stands for this setting: 3H-cytisine 1 nM, rat cerebral cortex homogenate, read-out: Assay I IC50.

SMILES strings stand for the structures. Counter-ions that a name gives are not always drawn. Like-named read-outs stand apart in the source and are kept apart here.

This is an account of results in patent publication US6552012B2 (priority 2000, dated 2003).

As usually defined, the melting point is the temperature, or range, at which the solid turns liquid. The term IC50 denotes the concentration needed to halve the response being measured.

T2 sequence (Q05941 23-502): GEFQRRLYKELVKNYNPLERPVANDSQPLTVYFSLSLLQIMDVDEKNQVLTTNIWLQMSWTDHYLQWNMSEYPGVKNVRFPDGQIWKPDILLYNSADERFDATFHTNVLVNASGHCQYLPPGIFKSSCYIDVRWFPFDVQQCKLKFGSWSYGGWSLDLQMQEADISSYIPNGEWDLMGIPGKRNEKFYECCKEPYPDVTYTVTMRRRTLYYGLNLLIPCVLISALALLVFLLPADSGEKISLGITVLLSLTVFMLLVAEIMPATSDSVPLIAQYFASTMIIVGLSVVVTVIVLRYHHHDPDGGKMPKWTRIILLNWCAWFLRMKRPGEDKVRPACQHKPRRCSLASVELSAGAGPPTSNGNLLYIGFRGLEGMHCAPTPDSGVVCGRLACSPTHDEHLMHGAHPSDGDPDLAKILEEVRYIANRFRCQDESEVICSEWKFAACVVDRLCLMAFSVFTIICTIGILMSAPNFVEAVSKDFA
T1 sequence (P09483 31-630): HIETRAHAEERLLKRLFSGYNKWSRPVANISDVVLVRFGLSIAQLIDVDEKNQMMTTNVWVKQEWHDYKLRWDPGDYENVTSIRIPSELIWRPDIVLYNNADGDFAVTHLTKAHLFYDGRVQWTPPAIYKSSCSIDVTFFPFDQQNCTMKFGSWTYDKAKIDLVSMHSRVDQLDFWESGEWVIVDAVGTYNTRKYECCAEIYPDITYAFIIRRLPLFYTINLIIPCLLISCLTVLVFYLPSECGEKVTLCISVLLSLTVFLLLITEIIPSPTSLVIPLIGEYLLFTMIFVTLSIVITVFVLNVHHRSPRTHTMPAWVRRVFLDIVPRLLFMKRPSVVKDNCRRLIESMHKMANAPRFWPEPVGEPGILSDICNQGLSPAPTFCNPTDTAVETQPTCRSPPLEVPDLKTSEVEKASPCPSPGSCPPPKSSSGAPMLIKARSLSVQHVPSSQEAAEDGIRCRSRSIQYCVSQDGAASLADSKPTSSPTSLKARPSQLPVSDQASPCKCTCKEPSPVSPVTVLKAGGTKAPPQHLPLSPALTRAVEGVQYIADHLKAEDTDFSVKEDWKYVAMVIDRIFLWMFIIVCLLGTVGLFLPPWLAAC
T1 sequence (P12390 25-500): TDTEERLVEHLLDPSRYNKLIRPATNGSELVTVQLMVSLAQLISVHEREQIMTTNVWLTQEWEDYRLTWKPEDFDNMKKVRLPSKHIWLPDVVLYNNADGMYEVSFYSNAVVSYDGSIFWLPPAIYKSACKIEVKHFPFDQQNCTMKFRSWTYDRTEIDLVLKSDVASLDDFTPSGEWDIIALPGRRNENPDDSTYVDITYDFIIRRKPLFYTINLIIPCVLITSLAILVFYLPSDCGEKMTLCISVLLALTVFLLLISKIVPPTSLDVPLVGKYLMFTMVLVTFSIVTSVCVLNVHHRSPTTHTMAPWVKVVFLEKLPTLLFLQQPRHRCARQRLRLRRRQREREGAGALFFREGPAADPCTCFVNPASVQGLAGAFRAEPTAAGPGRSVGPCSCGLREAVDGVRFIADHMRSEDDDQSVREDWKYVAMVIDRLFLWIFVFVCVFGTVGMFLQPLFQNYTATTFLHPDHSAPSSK

The compound `CN1C2CCC1CN(c1cncc(Cl)c1)CC2.O=C(O)/C=C/C(=O)O` (stereo not drawn) registered a melting point of 181 to 182 °C.

In turn, `CN1C2CCCC1CN(c1cncc(Br)c1)CC2.O=C(O)/C=C/C(=O)O` (stereo not drawn) showed a melting point of 162.5 to 164.5 °C. The same measure, in the same setting: the figure for `CCOc1cc(N2CCC3CCC(C2)N3C)cnc1Cl.O=C(O)/C=C/C(=O)O` (stereo not drawn) is 208.6 °C. Compound `CC=COc1cncc(N2CCC3CCC(C2)N3)c1` (stereo not drawn) (as salt: fumaric acid salt) [3-[5-(Propyl-1-en-oxy)-3-pyridyl]-3,9-diazabicyclo-[4.2.1]-nonane bis Fumaric Acid Salt] gave a melting point of 144 to 146 °C. In turn, `CC=COc1cncc(N2C3CCNCC2CC3)c1` (stereo not drawn) (as salt: fumaric acid salt) [9-[5-(Propyl-1-en-oxy)-(3-pyridyl)]-3,9-diazabicyclo-[4.2.1]-nonane Fumaric Acid Salt] gave a melting point of 161.5 to 163 °C. Same read-out and setting: the same measure for `COc1cncc(N2C3CCNCC2CC3)c1` (stereo not drawn) (as salt: fumaric acid salt) [9-[5-Methoxy)-(3-pyridyl)]-3,9-diazabicyclo-[4.2.1]-nonane Fumaric Acid Salt]: 183 to 185 °C. Compound `C=COc1cncc(N2CCC3CCC(C2)N3)c1.O=C(O)/C=C/C(=O)O` (stereo not drawn) [3-(5-Ethenyloxy-3-pyridyl)-3,9-diazabicyclo-[4.2.1]-nonane Fumaric Acid Salt] returned a melting point of 145 to 147 °C. Moreover, in data set [1] (setting [3]), the concentration for half-maximal inhibition (IC50) was 0.002 µM. In addition, the 50% inhibitory concentration (IC50) in data set [2] amounted to 1.5 µM.

On to `CCOc1cncc(N2CCC3CCC(C2)N3)c1.O=C(O)/C=C/C(=O)O` (stereo not drawn) [3-(5-Ethoxy-3-pyridyl)-3,9-diazabicyclo-[4.2.1]-nonane Fumaric Acid Salt], for which the melting point fell in the range of 143 to 146 °C. Besides, the 50% inhibitory concentration (IC50) in data set [1] (setting [3]) was less than 0.03 µM. The 50% inhibitory concentration (IC50) in data set [2] came to 6.2 µM. With `C=COc1cncc(N2CCC3CCC(C2)N3C)c1` (stereo not drawn) [3-(5Ethenyloxy-3-pyridyl)-9-methyl-3,9-diazabicyclo-[4.2.1]-nonane Fumaric Acid Salt], the figures for the IC50 in data set [1] (setting [3]) and in data set [2] were 0.003 µM and 5.8 µM, respectively. `CC=COc1cncc(N2CCC3CCC(C2)N3)c1` (stereo not drawn) [3-[5-(Propyl-1-en-oxy)-3-pyridyl]-3,9-diazabicyclo-[4.2.1]-nonane bis Fumaric Acid Salt]: the IC50 in data set [1] stood at 0.002 µM; in data set [2], 1.8 µM. The like results for `CC=COc1cncc(N2CCC3CCC(C2)N3C)c1` (stereo not drawn) [3-[5-(Propyl-1-en-oxy)-3-pyridyl]-9-methyl-3,9-diazabicyclo-[4.2.1]-nonane Fumaric Acid Salt] were, in that order, 0.005 µM and 10 µM. As to `CCOc1cncc(N2CCC3CCC(C2)N3C)c1` (stereo not drawn) [3-[5-Ethoxy-(3-pyridyl)]-9-methyl-3,9-diazabicyclo-[4.2.1]-nonane bis-fumaric Acid Salt], the half-inhibitory concentration (IC50) is 0.005 µM in data set [1] (setting [3]) and 8.1 µM in data set [2]. `Clc1ccc(N2CCC3CCC(C2)N3)nn1` (stereo not drawn) [3-[6-Chloro-(3-pyridazinyl)]-3,9-diazabicyclo-[4.2.1]-nonane Fumaric Acid Salt]: the IC50 in data set [1] came to 0.02 µM; in data set [2] it was 1.4 µM. The like results for `CN1C2CCC1CN(c1ccc(Cl)nn1)CC2` (stereo not drawn) [3-[6-Chloro-(3-pyridazinyl)]-9-methyl-3,9-diazabicyclo-[4.2.1]-nonane Fumaric Acid Salt] were, in that order, 1.2 µM and 10 µM. Take `CC=COc1cncc(N2C3CCNCC2CC3)c1` (stereo not drawn) [9-[5-(Propyl-1-en-oxy)-(3-pyridyl)]-3,9-diazabicyclo-[4.2.1]-nonane Fumaric Acid Salt]: the IC50 in data set [1] (setting [3]) was determined as 0.003 µM; in data set [2], 2.7 µM. The like results for `CCOc1cncc(N2C3CCNCC2CC3)c1` (stereo not drawn) [9-[5-Ethoxy-(3-pyridyl)]-3,9-diazabicyclo-[4.2.1]-nonane Fumaric Acid Salt] were, in that order, 0.003 µM and 2.7 µM. With `COc1cncc(N2C3CCNCC2CC3)c1` (stereo not drawn) [9-[5-Methoxy)-(3-pyridyl)]-3,9-diazabicyclo-[4.2.1]-nonane Fumaric Acid Salt], the IC50 in data set [1] came out at 0.15 µM; in data set [2] it was 3 µM.
